# From patent publication US12384800B2, “Antitumoral compounds” (priority 2017, dated 2025)
# Key:
# [1] = system: MDA-MB-231 tumors; experiment: Human breast xenograft, tumor volume
# Protocol: (§7) Female athymic nu/nu mice (Harlan Laboratories Models, S.L. Barcelona, Spain or Envigo, Spain) were utilized for all experiments. Animal were housed in individually ventilated cages Sealsafe® Plus, Techniplast S.P.A.), up to ten per cage on a 12-hour light-dark cycle at 21-23° C. and 40-60% humidity. […] Animals were acclimated for at least 5 days prior to tumor implantation with a tumor cell suspension.
# MDA-MB-231 cells were maintained in vitro at 37° C. with 5% CO2 in Dulbecco's Modified Eagle's Medium (Sigma-Aldrich, Co). Culture cells were passaged every 3 to 5 days upon reaching confluence.
# (§8) Treatment tolerability was assessed by monitoring body weight evolution, clinical signs of systemic toxicity, as well as evidences of local damage in the injection site.
# (§9) In Xenograft Studies with Other Cell Lines: • Tumor volume was calculated using the equation (a·b^2)/2, where a: length (longest diameter) and b: width (shortest diameter) were measured in mm by using digital caliper (Fowler Sylvac, S235PAT).
# (§10) Treatments producing >20% lethality and/or 20% net body weight loss were considered toxic.
# [2] = system: H460 tumors; experiment: Human lung (NSCLC) xenograft, tumor volume
# Protocol: as §7
# H460 cells were maintained in vitro at 37° C. with 5% CO2 in Dulbecco's Modified Eagle's Medium (Sigma-Aldrich, Co). Culture cells were passaged every 3 to 5 days upon reaching confluence. Each animal was subcutaneously implanted (on the right flank using 26G needle and a 1 cc syringe) at 4-6 weeks of age with 5×10^6 H460 cells suspended in 0.05 mL of a solution consisting of 50% Matrigel® (Corning Incorporated Life Sciences) and 50% medium without serum or antibiotics.
# as §8, §9, §10
# Tables and figures summarize the data obtained from complete experimental groups, i.e. those groups keeping the initial number of animals, n=8-10.
# [3] = system: HT1080 tumors; experiment: Human fibrosarcoma xenograft, total diameter (tumor + leg)
# Protocol: as §7
# HT1080 cells were maintained in vitro at 37° C. with 5% CO2 in Minimum Essential Medium Eagle (MEME) (Sigma-Aldrich, Co). Each animal was orthotopically implanted into gastroecnemius muscle by an intramuscular injection using a 26G needle and a 1 cc syringe at 4-6 weeks of age, with 10×10^6 HT1080 cells, suspended in serum free medium, without antibiotics.
# as §8
# In xenograft studies with HT1080 cell line: • Total diameter (tumor+leg) measurements were determined by using digital caliper (Fowler Sylvac, S235PAT).
# as §10
# [4] = system: HGC27 tumors; experiment: Human gastric xenograft, tumor volume
# Protocol: as §7
# HGC27 cells were maintained in vitro at 37° C. with 5% CO2 in Iscove's Modified Dulbecco's Medium (Sigma Aldrich, Co). Culture cells were passage every 3 to 5 days on reaching confluence. Each animal was subcutaneously implanted (on the right flank using 26G needle and a 1 cc syringe) at 4-6 weeks of age with 5×10^6 HGC-27 cells suspended in 0.05 mL of a solution consisting of 50% Matrigel® (Corning Incorporated Life Sciences), 50% medium without serum or antibiotics.
# as §8, §9, §10
# [5] = system: A2780 tumors; experiment: Human ovarian xenograft, tumor volume
# Protocol: as §7
# Culture cells were passaged every 3 to 5 days upon reaching confluence. Each animal was subcutaneously implanted (on the right flank using 26G needle and a 1 cc syringe) at 4-6 weeks of age with 10×10^6 A2780 cells suspended in 0.05 mL of a solution consisting of 50% Matrigel® (Corning Incorporated Life Sciences) and 50% medium without serum or antibiotics.
# as §8, §9, §10
# [6] = system: A549 cells (lung carcinoma, NSCLC); experiment: cells; settings: A549, SRB; for GI50: 72 hours treatment; for TGI: total cell growth inhibition; for TGI / CC50: 72 hours; for CC50: read-out: LC50, 50% net cell killing
# Source text: (§1) The aim of this assay is to evaluate the in vitro cytostatic (ability to delay or arrest tumor cell growth) or cytotoxic (ability to kill tumor cells) activity of the samples being tested.
# (§2) A colorimetric assay, using sulforhodamine B (SRB) reaction has been adapted to provide a quantitative measurement of cell growth and viability (following the technique described by Skehan et al. J. Natl. Cancer Inst. 1990, 82, 1107-1112). Another colorimetric assay based on 3-(4,5-Dimethylthiazol-2-yl)-2,5-diphenyltetrazolium bromide (MTT) reduction to a purple formazan has been also used to assess the antiproliferative activity (following the technique described by Mosmann et al. J. Immunol. Meth. 1983, 65, 55-63).
# (§3) These forms of assays employ 96-well cell culture microplates following the standards of the American National Standards Institute and the Society for Laboratory Automation and Screening (ANSI SLAS 1-2004 (R2012) Oct. 12, 2011. All the cell lines used in this study were obtained from the American Type Culture Collection (ATCC) and derive from different types of human cancer.
# (§4) A549, HT29, MDA-MB-231 and PSN1 cells were maintained in Dulbecco's Modified Eagle Medium (DMEM) while PC-3 and 22Rv1 cells were maintained in Roswell Park Memorial Institute Medium (RPMI). All cell lines were supplemented with 10% Fetal Bovine Serum (FBS), 2 mM L-glutamine, 100 U/mL penicillin, and 100 […] at 37° C., 5% CO2 and 98% humidity. For the experiments, cells were harvested from subconfluent cultures using trypsinization and resuspended in fresh medium before counting and plating.
# (§5) A549, HT29, MDA-MB-231 and PSN1 cells were seeded in 96 well microtiter plates, at 5000 cells per well in aliquots of 150 μL, and allowed to attach to the plate surface for 18 hours (overnight) in drug free medium. After that, one control (untreated) plate of each cell line was fixed (as described below) and used for time zero reference value. Culture plates were then treated with test compounds (50 μL aliquots of 4× stock solutions in complete culture medium plus 4% DMSO) using ten ⅖ serial dilutions (concentrations ranging from 10 to 0.003 μg/mL) and triplicate cultures (1% final concentration in DMSO). After 72 hours treatment, the antitumor effect was measured by using the SRB methodology: Briefly, cells were washed twice with PBS, fixed for 15 min in 1% glutaraldehyde solution at room temperature, rinsed twice in PBS, and stained in 0.4% SRB solution for 30 min at room temperature. Cells were then rinsed several times with 1% acetic acid solution and air-dried at room temperature.
# (§6) Effects on cell growth and survival were estimated by applying the NCI algorithm (Boyd M R and Paull K D. Drug Dev. Res. 1995, 34, 91-104). The values obtained in triplicate cultures were fitted by nonlinear regression to a four-parameters logistic curve by nonlinear regression analysis.
# [7] = system: MDA-MB-231 cells (breast adenocarcinoma); experiment: cells; settings: MDA-MB-231, SRB; for GI50: 72 hours treatment; for TGI: total cell growth inhibition; for TGI / CC50: 72 hours; for CC50: read-out: LC50, 50% net cell killing
# Source text: as §1, §2, §3, §4, §5, §6
# [8] = system: HT29 cells (colorectal adenocarcinoma); experiment: cells; settings: HT29, SRB; for GI50: 72 hours treatment; for TGI: total cell growth inhibition; for TGI / CC50: 72 hours; for CC50: read-out: LC50, 50% net cell killing
# Source text: as §1, §2, §3, §4, §5, §6
# [9] = system: PSN1 cells (pancreas adenocarcinoma); experiment: cells; settings: PSN1, SRB; for GI50: 72 hours treatment; for TGI: total cell growth inhibition; for TGI / CC50: 72 hours; for CC50: read-out: LC50, 50% net cell killing
# Source text: as §1, §2, §3, §4, §5, §6
smiles,measurement,setting,value
COc1c(C)cc2c(c1O)[C@@H]1[C@@H]3[C@@H]4SC[C@]5(N[C@@H](CN)Cc6c5oc5ccccc65)C(=O)OC[C@@H](c5c6c(c(C)c(OC(C)=O)c54)OCO6)N3[C@@H](O)[C@H](C2)N1C [Compound 47-R],Median Tumor Volume,[1]; Day 2,225.3 mm^3
same,Median Tumor Volume,[1]; Day 5,323.2 mm^3
same,Median Tumor Volume,[1]; Day 7,405.0 mm^3
same,Median Tumor Volume,[1]; Day 9,495.9 mm^3
same,Median Tumor Volume,[1]; Day 12,594.1 mm^3
same,Median Tumor Volume,[1]; Day 14,769.5 mm^3
same,Median Tumor Volume,[1]; Day 16,1009.5 mm^3
same,Median Tumor Volume,[1]; Day 19,1298.0 mm^3
same,Median Tumor Volume,[1]; Day 21,1580.7 mm^3
same,Median Tumor Volume,[1]; Day 23,2006.5 mm^3
same,Median Tumor Volume,[1]; Day 26,2032.1 mm^3
same,Median Tumor Volume,[2]; Day 2,508.1 mm^3
same,Median Tumor Volume,[2]; Day 5,979.3 mm^3
same,Median Tumor Volume,[2]; Day 7,1280.0 mm^3
same,Median Tumor Volume,[2]; Day 9,1543.1 mm^3
same,Median Tumor Volume,[2]; Day 12,1764.0 mm^3
same,Median Tumor Volume,[2]; Day 14,1845.5 mm^3
same,Total diameter (tumor + leg),[3]; Day 2,8.9 mm
same,Total diameter (tumor + leg),[3]; Day 5,10.1 mm
same,Total diameter (tumor + leg),[3]; Day 7,10.5 mm
same,Total diameter (tumor + leg),[3]; Day 9,11.5 mm
same,Total diameter (tumor + leg),[3]; Day 12,13.5 mm
same,Total diameter (tumor + leg),[3]; Day 14,13.9 mm
same,Total diameter (tumor + leg),[3]; Day 16,14.6 mm
same,Total diameter (tumor + leg),[3]; Day 19,18.0 mm
same,Median Tumor Volume,[4]; Day 2,359.4 mm^3
same,Median Tumor Volume,[4]; Day 5,774.8 mm^3
same,Median Tumor Volume,[4]; Day 7,1155.4 mm^3
same,Median Tumor Volume,[4]; Day 9,1474.7 mm^3
same,Median Tumor Volume,[4]; Day 12,1870.2 mm^3
same,Median Tumor Volume,[4]; Day 14,2031.3 mm^3
same,Median Tumor Volume,[4]; Day 16,2075.2 mm^3
same,Median Tumor Volume,[5]; Day 2,280.6 mm^3
same,Median Tumor Volume,[5]; Day 5,653.9 mm^3
same,Median Tumor Volume,[5]; Day 7,848.7 mm^3
same,Median Tumor Volume,[5]; Day 9,1569.1 mm^3
same,Median Tumor Volume,[5]; Day 12,1764.0 mm^3
same,Median Tumor Volume,[5]; Day 14,1666.0 mm^3
same,Median Tumor Volume,[5]; Day 16,2025.0 mm^3
COc1c(C)cc2c(c1O)[C@@H]1[C@@H]3[C@@H]4SC[C@]5(N[C@@H](CN)Cc6c5[nH]c5ccccc65)C(=O)OC[C@@H](c5c6c(c(C)c(OC(C)=O)c54)OCO6)N3[C@@H](O)[C@H](C2)N1C [Compound 12-R],Median Tumor Volume,[1]; Day 2,223.0 mm^3
same,Median Tumor Volume,[1]; Day 5,296.1 mm^3
same,Median Tumor Volume,[1]; Day 7,378.3 mm^3
same,Median Tumor Volume,[1]; Day 9,472.7 mm^3
same,Median Tumor Volume,[1]; Day 12,609.9 mm^3
same,Median Tumor Volume,[1]; Day 14,782.5 mm^3
same,Median Tumor Volume,[1]; Day 16,972.4 mm^3
same,Median Tumor Volume,[1]; Day 19,1211.0 mm^3
same,Median Tumor Volume,[1]; Day 21,1463.4 mm^3
same,Median Tumor Volume,[1]; Day 23,1756.5 mm^3
same,Median Tumor Volume,[1]; Day 26,2028.6 mm^3
same,Median Tumor Volume,[2]; Day 2,410.7 mm^3
same,Median Tumor Volume,[2]; Day 5,796.7 mm^3
same,Median Tumor Volume,[2]; Day 7,1167.9 mm^3
same,Median Tumor Volume,[2]; Day 9,1360.3 mm^3
same,Median Tumor Volume,[2]; Day 12,1666.0 mm^3
same,Median Tumor Volume,[2]; Day 14,2025.0 mm^3
same,Total diameter (tumor + leg),[3]; Day 2,8.9 mm
same,Total diameter (tumor + leg),[3]; Day 5,8.8 mm
same,Total diameter (tumor + leg),[3]; Day 7,9.5 mm
same,Total diameter (tumor + leg),[3]; Day 9,9.5 mm
same,Total diameter (tumor + leg),[3]; Day 12,11.0 mm
same,Total diameter (tumor + leg),[3]; Day 14,11.7 mm
same,Total diameter (tumor + leg),[3]; Day 16,12.9 mm
same,Total diameter (tumor + leg),[3]; Day 19,13.5 mm
same,Total diameter (tumor + leg),[3]; Day 21,15.5 mm
same,Total diameter (tumor + leg),[3]; Day 23,18.0 mm
same,Median Tumor Volume,[4]; Day 2,413.3 mm^3
same,Median Tumor Volume,[4]; Day 5,809.1 mm^3
same,Median Tumor Volume,[4]; Day 7,1261.5 mm^3
same,Median Tumor Volume,[4]; Day 9,1589.5 mm^3
same,Median Tumor Volume,[4]; Day 12,2017.9 mm^3
same,Median Tumor Volume,[4]; Day 14,2034.9 mm^3
same,Median Tumor Volume,[5]; Day 2,302.8 mm^3
same,Median Tumor Volume,[5]; Day 5,786.5 mm^3
same,Median Tumor Volume,[5]; Day 7,1113.3 mm^3
same,Median Tumor Volume,[5]; Day 9,1490.6 mm^3
same,Median Tumor Volume,[5]; Day 12,2025.00 mm^3
same,Median Tumor Volume,[5]; Day 14,2025.00 mm^3
COc1c(C)cc2c(c1O)[C@@H]1[C@@H]3[C@@H]4SC[C@]5(N[C@H](CO)Cc6c5oc5ccccc65)C(=O)OC[C@@H](c5c6c(c(C)c(OC(C)=O)c54)OCO6)N3[C@@H](C#N)[C@H](C2)N1C [Compound 38-S],GI50,[6],8.05 nM
same,TGI,[6],8.55E−09 Molar
same,CC50,[6],9.44 nM
same,GI50,[7],2.52 nM
same,TGI,[7],4.28E−09 Molar
same,CC50,[7],7.8 nM
same,GI50,[8],4.53 nM
same,TGI,[8],7.05E−09 Molar
same,CC50,[8],> 126 nM
same,GI50,[9],5.03 nM
same,TGI,[9],8.18E−09 Molar
same,CC50,[9],15.1 nM
COc1ccc2[nH]c3c(c2c1)C[C@H](CN)N[C@]31CS[C@@H]2c3c(OC(C)=O)c(C)c4c(c3[C@H](COC1=O)N1[C@@H]2[C@H]2c3c(cc(C)c(OC)c3O)C[C@@H]([C@@H]1C#N)N2C)OCO4 [Compound 26-R],GI50,[6],1.94 nM
same,TGI,[6],3.40E−09 Molar
same,CC50,[6],> 122 nM
same,GI50,[7],1.17 nM
same,TGI,[7],1.22E−09 Molar
same,CC50,[7],1.46 nM
same,GI50,[8],0.729 nM
same,TGI,[8],1.58E−09 Molar
same,CC50,[8],> 122 nM
same,GI50,[9],0.972 nM
same,TGI,[9],1.70E−09 Molar
same,CC50,[9],3.52 nM
"COc1ccc2[nH]c3c(c2c1)C[C@H](C(=O)O)N[C@]31CS[C@@H]2c3c(OC(C)=O)c(C)c4c(c3[C@H](COC1=O)N1[C@@H]2[C@H]2c3c(cc(C)c(OC)c3O)C[C@@H]([C@@H]1C#N)N2C)OCO4 [Compound 28-R, reference compound]",GI50,[6],167 nM
same,TGI,[6],3.58E−07 Molar
same,CC50,[6],> 1190 nM
same,GI50,[7],19.1 nM
same,TGI,[7],3.22E−08 Molar
same,CC50,[7],91.9 nM
same,GI50,[8],31 nM
same,TGI,[8],3.34E−08 Molar
same,CC50,[8],> 1190 nM
same,GI50,[9],21.5 nM
same,TGI,[9],3.58E−08 Molar
same,CC50,[9],66.8 nM
"COc1ccc2[nH]c3c(c2c1)C[C@@H](C(=O)O)N[C@]31CS[C@@H]2c3c(OC(C)=O)c(C)c4c(c3[C@H](COC1=O)N1[C@@H]2[C@H]2c3c(cc(C)c(OC)c3O)C[C@@H]([C@@H]1C#N)N2C)OCO4 [Compound 28-S, reference compound]",GI50,[6],489 nM
same,TGI,[6],>1.19E−06 Molar
same,CC50,[6],> 1190 nM
same,GI50,[7],167 nM
same,TGI,[7],2.51E−07 Molar
same,CC50,[7],394 nM
same,GI50,[8],251 nM
same,TGI,[8],3.46E−07 Molar
same,CC50,[8],633 nM
same,GI50,[9],251 nM
same,TGI,[9],3.94E−07 Molar
same,CC50,[9],692 nM
COc1c(C)cc2c(c1O)[C@@H]1[C@@H]3[C@@H]4SC[C@]5(N[C@@H](CO)Cc6c5[nH]c5ccccc65)C(=O)OC[C@@H](c5c6c(c(C)c(OC(C)=O)c54)OCO6)N3[C@@H](C#N)[C@H](C2)N1C [Compound 3-R],GI50,[6],403 nM
same,TGI,[6],5.79E−10 Molar
same,CC50,[6],> 126 nM
same,TGI,[7],5.04E−10 Molar
same,CC50,[7],1.25 nM
same,TGI,[8],>1.26E−07 Molar
same,CC50,[8],> 126 nM
same,GI50,[9],0.39 nM
same,TGI,[9],6.05E−10 Molar
same,CC50,[9],> 126 nM
COc1c(C)cc2c(c1O)[C@@H]1[C@@H]3[C@@H]4SC[C@]5(NCCc6c5oc5ccccc65)C(=O)OC[C@@H](c5c6c(c(C)c(OC(C)=O)c54)OCO6)N3[C@@H](C#N)[C@H](C2)N1C [Compound 31],GI50,[6],19.6 nM
same,TGI,[6],2.09E−08 Molar
same,CC50,[6],23.5 nM
same,GI50,[7],8.89 nM
same,TGI,[7],1.70E−08 Molar
same,CC50,[7],35.3 nM
same,GI50,[8],10.5 nM
same,TGI,[8],1.57E−08 Molar
same,CC50,[8],> 131 nM
same,GI50,[9],6.8 nM
same,TGI,[9],1.57E−08 Molar
same,CC50,[9],43.1 nM
